Experimental data published in PMC7613998, “Development of selective inhibitors of phosphatidylinositol 3-kinase C2α” (Nature Chemical Biology, 2022).

Tests used:
Assay in all cases: biochemical
Set-up in all cases: SelectScreen Z'-LYTE purified kinase panel, per cent inhibition, mean of two points
Settings in all cases: (μM)=Km app
DCAMKL1 (DCLK1) = target: T1, DCAMKL1 (DCLK1) (Homo sapiens, UniProt O15075)
T1 sequence (O15075 1-740): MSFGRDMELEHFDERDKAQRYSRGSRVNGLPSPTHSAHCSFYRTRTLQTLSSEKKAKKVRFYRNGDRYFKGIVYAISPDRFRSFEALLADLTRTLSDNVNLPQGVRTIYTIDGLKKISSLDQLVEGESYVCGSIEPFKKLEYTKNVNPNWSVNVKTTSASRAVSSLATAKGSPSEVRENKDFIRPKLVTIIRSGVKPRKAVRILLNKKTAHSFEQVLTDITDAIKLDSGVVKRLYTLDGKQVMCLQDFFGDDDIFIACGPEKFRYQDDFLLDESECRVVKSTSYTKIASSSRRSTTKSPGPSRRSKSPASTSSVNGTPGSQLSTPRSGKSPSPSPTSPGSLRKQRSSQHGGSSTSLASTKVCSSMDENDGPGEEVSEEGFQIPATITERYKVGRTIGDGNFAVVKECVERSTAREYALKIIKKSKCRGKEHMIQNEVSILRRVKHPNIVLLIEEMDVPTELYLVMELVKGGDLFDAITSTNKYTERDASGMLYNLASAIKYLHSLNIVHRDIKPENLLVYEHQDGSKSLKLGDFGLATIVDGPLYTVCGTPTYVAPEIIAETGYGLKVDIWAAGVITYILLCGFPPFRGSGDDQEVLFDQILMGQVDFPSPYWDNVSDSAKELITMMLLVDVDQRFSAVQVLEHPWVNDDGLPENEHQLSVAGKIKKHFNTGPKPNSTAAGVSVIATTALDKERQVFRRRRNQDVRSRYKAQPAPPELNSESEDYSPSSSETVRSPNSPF

PIM3 = PIM3 (Homo sapiens, UniProt Q86V86)
PDGFRA (PDGFR alpha) = PDGFRA (PDGFR alpha) (Homo sapiens, UniProt P16234)
IKBKB (IKK beta) = target: T2, IKBKB (IKK beta) (Homo sapiens, UniProt O14920)
T2 sequence (O14920 1-756): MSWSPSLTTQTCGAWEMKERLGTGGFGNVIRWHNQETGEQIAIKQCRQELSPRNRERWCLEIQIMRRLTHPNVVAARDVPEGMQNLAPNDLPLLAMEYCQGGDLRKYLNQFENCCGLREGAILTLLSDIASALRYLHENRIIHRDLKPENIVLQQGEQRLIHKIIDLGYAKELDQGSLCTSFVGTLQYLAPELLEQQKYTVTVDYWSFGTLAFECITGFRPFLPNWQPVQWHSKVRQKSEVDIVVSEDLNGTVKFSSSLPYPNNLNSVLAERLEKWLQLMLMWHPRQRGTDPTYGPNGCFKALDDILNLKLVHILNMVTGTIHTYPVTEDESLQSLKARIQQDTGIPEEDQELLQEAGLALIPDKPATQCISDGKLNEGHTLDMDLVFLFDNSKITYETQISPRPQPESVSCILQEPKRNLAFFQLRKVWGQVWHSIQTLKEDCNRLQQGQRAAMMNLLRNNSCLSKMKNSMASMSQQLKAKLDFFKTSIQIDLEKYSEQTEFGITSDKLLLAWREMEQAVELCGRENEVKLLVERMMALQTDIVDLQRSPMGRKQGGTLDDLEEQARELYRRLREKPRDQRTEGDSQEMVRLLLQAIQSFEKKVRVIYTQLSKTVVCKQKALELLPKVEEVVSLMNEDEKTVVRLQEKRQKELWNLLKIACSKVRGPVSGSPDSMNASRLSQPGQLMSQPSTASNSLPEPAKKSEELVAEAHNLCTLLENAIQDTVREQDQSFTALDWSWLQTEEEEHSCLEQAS

PLK1 = PLK1 (Homo sapiens, UniProt P53350)
TEK (Tie2) = TEK (Tie2) (Homo sapiens, UniProt Q02763)
ACVR1B (ALK4) = target: T3, ACVR1B (ALK4) (Homo sapiens, UniProt P36896)
T3 sequence (P36896 1-505): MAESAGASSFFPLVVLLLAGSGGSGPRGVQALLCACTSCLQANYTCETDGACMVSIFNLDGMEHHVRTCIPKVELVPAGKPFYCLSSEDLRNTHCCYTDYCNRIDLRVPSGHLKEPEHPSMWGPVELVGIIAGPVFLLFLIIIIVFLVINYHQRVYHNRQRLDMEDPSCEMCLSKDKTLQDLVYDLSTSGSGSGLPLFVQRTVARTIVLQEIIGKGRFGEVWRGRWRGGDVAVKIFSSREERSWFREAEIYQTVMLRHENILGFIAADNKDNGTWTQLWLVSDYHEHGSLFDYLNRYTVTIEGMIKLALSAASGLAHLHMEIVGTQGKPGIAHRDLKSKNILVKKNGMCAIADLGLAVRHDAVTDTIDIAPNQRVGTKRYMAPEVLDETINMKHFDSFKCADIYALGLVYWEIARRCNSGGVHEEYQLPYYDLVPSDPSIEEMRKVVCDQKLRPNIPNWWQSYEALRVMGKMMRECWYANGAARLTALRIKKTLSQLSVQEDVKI

PAK4 = PAK4 (Homo sapiens, UniProt O96013)
Chain of PAK4 (O96013 whole entry): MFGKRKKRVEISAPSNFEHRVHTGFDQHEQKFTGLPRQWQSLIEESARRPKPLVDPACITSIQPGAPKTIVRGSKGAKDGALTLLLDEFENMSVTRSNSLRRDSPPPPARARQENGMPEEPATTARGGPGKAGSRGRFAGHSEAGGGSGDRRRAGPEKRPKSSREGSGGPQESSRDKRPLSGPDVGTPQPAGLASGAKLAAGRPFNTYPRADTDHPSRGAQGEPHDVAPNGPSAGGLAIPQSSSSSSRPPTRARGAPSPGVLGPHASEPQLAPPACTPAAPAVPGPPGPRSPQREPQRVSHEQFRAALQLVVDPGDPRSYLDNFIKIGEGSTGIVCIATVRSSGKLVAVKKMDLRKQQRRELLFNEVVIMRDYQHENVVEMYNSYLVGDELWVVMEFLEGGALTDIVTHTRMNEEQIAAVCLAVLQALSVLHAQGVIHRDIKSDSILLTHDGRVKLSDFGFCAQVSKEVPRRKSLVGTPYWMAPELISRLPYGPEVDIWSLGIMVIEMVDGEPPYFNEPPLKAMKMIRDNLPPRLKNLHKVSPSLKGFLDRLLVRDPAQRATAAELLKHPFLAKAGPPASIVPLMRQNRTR

Chain of PDGFRA (PDGFR alpha) (P16234 whole entry): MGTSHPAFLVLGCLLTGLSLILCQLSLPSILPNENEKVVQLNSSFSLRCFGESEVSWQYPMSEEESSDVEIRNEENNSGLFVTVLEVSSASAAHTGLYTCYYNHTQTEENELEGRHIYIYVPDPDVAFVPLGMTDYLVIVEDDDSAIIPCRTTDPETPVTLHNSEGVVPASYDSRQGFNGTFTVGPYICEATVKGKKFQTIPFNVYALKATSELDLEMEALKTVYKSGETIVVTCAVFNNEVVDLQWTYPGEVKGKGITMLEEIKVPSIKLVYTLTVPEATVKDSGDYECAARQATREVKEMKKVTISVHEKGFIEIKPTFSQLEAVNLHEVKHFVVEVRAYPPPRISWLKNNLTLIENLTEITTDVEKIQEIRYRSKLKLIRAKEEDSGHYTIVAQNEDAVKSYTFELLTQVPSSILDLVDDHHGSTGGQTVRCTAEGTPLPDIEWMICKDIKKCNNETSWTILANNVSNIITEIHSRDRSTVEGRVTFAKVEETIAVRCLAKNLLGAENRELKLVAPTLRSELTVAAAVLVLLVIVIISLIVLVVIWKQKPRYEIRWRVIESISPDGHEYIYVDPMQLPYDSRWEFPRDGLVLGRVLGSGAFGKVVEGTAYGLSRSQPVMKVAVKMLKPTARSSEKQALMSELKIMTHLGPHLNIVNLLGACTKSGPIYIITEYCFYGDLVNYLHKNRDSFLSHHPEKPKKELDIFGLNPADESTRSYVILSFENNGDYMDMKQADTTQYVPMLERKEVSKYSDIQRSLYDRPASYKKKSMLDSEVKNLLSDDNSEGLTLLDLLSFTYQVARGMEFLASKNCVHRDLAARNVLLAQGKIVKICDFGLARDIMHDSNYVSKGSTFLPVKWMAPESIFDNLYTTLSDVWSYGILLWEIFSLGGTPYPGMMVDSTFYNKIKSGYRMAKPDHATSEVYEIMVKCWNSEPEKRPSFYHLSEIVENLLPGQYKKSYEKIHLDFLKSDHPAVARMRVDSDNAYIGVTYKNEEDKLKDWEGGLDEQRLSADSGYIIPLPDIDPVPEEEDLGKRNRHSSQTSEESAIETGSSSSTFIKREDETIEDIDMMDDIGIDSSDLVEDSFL
Chain of PLK1 (P53350 whole entry): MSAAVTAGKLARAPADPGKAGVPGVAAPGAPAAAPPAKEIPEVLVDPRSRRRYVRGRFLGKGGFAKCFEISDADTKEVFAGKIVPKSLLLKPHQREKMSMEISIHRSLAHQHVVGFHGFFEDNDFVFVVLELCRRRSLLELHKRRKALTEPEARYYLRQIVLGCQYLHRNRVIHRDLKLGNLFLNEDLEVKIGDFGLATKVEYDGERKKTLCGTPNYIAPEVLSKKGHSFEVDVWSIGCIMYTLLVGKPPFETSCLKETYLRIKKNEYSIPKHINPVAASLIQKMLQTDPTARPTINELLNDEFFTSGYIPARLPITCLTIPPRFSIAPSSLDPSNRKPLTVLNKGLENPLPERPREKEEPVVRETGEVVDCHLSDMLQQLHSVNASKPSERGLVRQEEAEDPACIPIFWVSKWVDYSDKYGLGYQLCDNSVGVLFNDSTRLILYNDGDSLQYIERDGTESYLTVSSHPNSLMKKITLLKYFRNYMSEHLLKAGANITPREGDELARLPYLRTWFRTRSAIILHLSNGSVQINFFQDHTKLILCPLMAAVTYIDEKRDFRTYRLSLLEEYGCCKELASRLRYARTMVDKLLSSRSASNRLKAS
Chain of TEK (Tie2) (Q02763 whole entry): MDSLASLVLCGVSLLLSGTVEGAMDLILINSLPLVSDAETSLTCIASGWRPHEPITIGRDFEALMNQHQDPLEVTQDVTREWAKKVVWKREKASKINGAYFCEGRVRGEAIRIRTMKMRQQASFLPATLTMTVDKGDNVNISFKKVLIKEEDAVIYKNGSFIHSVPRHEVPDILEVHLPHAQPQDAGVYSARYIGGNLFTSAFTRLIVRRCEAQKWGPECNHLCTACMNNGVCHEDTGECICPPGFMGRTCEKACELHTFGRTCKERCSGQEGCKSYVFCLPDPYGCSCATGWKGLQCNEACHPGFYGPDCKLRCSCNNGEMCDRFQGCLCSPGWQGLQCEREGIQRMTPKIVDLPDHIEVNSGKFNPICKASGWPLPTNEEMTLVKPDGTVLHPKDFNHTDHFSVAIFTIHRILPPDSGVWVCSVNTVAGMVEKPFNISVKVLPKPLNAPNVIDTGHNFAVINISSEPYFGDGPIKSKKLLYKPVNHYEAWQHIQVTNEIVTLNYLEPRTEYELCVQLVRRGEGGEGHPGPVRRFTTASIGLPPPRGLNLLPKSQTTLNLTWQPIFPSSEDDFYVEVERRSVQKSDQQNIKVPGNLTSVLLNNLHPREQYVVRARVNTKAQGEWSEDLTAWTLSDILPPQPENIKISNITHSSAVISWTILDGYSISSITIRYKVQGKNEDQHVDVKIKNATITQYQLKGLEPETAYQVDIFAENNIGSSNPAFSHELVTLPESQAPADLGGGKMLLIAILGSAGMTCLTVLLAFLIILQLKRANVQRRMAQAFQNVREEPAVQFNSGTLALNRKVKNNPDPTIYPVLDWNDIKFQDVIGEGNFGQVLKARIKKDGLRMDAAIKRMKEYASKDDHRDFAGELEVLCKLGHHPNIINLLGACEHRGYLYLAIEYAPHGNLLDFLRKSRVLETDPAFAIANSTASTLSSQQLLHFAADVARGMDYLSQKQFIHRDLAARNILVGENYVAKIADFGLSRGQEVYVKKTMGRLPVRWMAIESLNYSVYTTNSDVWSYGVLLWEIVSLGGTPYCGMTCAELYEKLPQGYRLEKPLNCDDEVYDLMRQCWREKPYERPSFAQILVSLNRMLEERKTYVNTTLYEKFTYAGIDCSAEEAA

Structure (SMILES)	inhibition at 1 µM (DCAMKL1 (DCLK1)) [%]	inhibition at 3 µM (DCAMKL1 (DCLK1)) [%]	inhibition at 10 µM (DCAMKL1 (DCLK1)) [%]	inhibition at 1 µM (PIM3) [%]	inhibition at 3 µM (PIM3) [%]	inhibition at 10 µM (PIM3) [%]	inhibition at 1 µM (PDGFRA (PDGFR alpha)) [%]	inhibition at 3 µM (PDGFRA (PDGFR alpha)) [%]	inhibition at 10 µM (PDGFRA (PDGFR alpha)) [%]	inhibition at 1 µM (IKBKB (IKK beta)) [%]	inhibition at 3 µM (IKBKB (IKK beta)) [%]	inhibition at 10 µM (IKBKB (IKK beta)) [%]	inhibition at 1 µM (PLK1) [%]	inhibition at 3 µM (PLK1) [%]	inhibition at 10 µM (PLK1) [%]	inhibition at 1 µM (TEK (Tie2)) [%]	inhibition at 3 µM (TEK (Tie2)) [%]	inhibition at 10 µM (TEK (Tie2)) [%]	inhibition at 1 µM (ACVR1B (ALK4)) [%]	inhibition at 3 µM (ACVR1B (ALK4)) [%]	also measured
O=C(CSc1nc2nccnc2c(=O)n1CCc1ccccc1)Nc1nccs1 [compound 1, PITCOIN1]	-1.36	-3.92	1.03	-19.5	0.932	0.817	8.94	1.9	4.84	8.34	4.24	4.15	8.77	11	10.9	7.5	5.07	3.39	3.41	5.04	inhibition at 10 µM (ACVR1B (ALK4)): 3.29%; inhibition at 1 µM (PAK4): 9.59%; inhibition at 3 µM (PAK4): 9%; inhibition at 10 µM (PAK4): 4.11%
CS(=O)(=O)Nc1cccc(-c2csc(NC(=O)CSc3nc4nccnc4c(=O)n3CCc3ccccc3)n2)c1 [compound 3, PITCOIN3]	-7.05	-11.7	13.7	-2.65	-27.1	-12.5	1.77	20.1	16.3	3.7	14.3	12.2	9.36	10	7.66	8.6	10.7	5.64	5.04	9.13	inhibition at 10 µM (ACVR1B (ALK4)): 4.09%; inhibition at 1 µM (PAK4): 4.8%; inhibition at 3 µM (PAK4): 3.9%; inhibition at 10 µM (PAK4): 2.41%
